Measurements from ChEMBL document CHEMBL1681676, “The design and synthesis of novel N-hydroxyformamide inhibitors of ADAM-TS4 for the treatment of osteoarthritis” (Bioorg Med Chem Lett, 2011).

Columns and labels:
[1] = biological target: Voltage-gated inwardly rectifying potassium channel KCNH2 (Homo sapiens, UniProt Q12809); assay: Inhibition of human ERG
Collagenase 3 = Collagenase 3 (Homo sapiens, UniProt P45452); assay: Inhibition of recombinant human MMP13 assessed as substrate cleavage by measuring increase in fluorescence after 16 hrs
[2] = biological target: T1, A disintegrin and metalloproteinase with thrombospondin motifs 4 (Homo sapiens, UniProt O75173); assay: Inhibition of ADAMTS-4 assessed as substrate cleavage by measuring increase in fluorescence after 16 hrs
T1 sequence (O75173 whole entry): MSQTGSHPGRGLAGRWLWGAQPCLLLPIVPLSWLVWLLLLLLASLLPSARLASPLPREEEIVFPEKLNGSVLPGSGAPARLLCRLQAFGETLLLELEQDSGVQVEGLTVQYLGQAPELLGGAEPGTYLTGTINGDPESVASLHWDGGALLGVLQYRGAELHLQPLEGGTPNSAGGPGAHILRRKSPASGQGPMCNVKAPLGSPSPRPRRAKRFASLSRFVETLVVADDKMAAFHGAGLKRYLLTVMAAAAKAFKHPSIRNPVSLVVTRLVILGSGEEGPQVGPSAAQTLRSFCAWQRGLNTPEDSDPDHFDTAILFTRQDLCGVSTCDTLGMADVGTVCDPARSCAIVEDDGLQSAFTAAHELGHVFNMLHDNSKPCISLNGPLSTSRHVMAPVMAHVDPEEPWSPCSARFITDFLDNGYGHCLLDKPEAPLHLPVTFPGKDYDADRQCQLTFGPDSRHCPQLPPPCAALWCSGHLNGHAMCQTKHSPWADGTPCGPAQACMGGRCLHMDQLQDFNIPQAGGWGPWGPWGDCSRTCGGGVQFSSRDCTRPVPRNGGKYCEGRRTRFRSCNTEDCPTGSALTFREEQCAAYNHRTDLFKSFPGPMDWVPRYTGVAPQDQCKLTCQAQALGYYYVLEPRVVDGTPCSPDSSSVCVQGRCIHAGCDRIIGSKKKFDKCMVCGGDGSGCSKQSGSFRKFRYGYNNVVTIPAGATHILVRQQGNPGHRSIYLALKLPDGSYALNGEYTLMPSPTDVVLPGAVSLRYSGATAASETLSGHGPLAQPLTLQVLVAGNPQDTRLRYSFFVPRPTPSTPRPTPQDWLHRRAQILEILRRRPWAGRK

[3] = biological target: Matrix metalloproteinase-14 (Homo sapiens, UniProt P50281); assay: Inhibition of recombinant human MMP14 assessed as substrate cleavage by measuring increase in fluorescence after 16 hrs
Cytochrome P450 3A4 = Cytochrome P450 3A4 (Homo sapiens, UniProt P08684); assay: Inhibition of CYP3A4; assay type: ADME
Interstitial collagenase = biological target: T2, Interstitial collagenase (Homo sapiens, UniProt P03956); assay: Inhibition of recombinant human MMP1 assessed as substrate cleavage by measuring increase in fluorescence after 16 hrs
T2 sequence (P03956 whole entry): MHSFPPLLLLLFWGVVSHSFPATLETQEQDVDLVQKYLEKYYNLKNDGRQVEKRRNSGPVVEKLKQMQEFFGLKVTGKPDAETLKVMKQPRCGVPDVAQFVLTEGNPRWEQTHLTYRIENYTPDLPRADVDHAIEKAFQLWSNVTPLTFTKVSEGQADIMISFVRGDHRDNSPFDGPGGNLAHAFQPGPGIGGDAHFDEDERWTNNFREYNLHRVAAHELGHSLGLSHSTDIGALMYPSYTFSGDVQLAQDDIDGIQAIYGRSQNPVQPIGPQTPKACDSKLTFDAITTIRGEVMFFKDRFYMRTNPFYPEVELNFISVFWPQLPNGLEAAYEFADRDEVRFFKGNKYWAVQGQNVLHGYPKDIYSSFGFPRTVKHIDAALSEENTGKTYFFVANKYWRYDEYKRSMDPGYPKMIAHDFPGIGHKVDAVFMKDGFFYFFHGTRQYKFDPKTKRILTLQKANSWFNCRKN

[4] = Intrinsic clearance in rat hepatocytes measured per 10^6 cells; assay type: ADME, cell-based, Liver, Hepatocyte
[5] = Clearance in Han Wistar rat at 2 mg/kg, iv by LC-MS/MS analysis; assay type: ADME, organism-based; design: dose 2 mg/kg, route intravenous; settings: in vivo
[6] = Intrinsic clearance in human liver microsomes
[7] = Half life in Han Wistar rat at 2 mg/kg, iv and po by LC-MS/MS analysis; assay type: ADME, organism-based; design: dose 2 mg/kg, route oral; settings: in vivo
[8] = Oral bioavailability in Han Wistar rat at 3 to 10 mg/kg by LC-MS/MS analysis; assay type: ADME, organism-based; settings: in vivo
[9] = biological target: 72 kDa type IV collagenase (Homo sapiens, UniProt P08253); assay: Inhibition of recombinant human MMP2 assessed as substrate cleavage by measuring increase in fluorescence after 16 hrs
[10] = biological target: Disintegrin and metalloproteinase domain-containing protein 17 (Homo sapiens, UniProt P78536); assay: Inhibition of TACE assessed as substrate cleavage by measuring increase in fluorescence after 16 hrs
Chain of Disintegrin and metalloproteinase domain-containing protein 17 (P78536 whole entry, the tested form may be a part): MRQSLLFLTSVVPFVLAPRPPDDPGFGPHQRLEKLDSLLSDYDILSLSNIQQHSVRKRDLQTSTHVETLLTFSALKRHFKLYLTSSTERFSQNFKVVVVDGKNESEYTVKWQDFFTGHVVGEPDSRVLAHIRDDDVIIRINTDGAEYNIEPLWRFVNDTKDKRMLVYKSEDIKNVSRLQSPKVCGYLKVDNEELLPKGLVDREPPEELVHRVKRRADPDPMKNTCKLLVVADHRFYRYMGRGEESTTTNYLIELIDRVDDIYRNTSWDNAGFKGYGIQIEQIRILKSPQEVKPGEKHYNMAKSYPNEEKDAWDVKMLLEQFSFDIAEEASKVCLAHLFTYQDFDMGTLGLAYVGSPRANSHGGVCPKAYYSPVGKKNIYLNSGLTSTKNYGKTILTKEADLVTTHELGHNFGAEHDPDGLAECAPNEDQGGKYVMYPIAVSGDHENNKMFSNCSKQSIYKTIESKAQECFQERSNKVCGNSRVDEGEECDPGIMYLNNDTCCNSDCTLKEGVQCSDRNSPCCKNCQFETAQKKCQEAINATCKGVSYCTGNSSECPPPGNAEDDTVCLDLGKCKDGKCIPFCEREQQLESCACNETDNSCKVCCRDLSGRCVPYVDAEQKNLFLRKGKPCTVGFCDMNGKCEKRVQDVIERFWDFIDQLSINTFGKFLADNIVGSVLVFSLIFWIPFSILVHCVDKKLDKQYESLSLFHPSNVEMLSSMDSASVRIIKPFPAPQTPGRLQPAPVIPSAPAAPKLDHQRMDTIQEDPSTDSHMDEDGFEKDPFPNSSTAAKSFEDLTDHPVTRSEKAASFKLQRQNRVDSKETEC

Chain of 72 kDa type IV collagenase (P08253 whole entry, the tested form may be a part): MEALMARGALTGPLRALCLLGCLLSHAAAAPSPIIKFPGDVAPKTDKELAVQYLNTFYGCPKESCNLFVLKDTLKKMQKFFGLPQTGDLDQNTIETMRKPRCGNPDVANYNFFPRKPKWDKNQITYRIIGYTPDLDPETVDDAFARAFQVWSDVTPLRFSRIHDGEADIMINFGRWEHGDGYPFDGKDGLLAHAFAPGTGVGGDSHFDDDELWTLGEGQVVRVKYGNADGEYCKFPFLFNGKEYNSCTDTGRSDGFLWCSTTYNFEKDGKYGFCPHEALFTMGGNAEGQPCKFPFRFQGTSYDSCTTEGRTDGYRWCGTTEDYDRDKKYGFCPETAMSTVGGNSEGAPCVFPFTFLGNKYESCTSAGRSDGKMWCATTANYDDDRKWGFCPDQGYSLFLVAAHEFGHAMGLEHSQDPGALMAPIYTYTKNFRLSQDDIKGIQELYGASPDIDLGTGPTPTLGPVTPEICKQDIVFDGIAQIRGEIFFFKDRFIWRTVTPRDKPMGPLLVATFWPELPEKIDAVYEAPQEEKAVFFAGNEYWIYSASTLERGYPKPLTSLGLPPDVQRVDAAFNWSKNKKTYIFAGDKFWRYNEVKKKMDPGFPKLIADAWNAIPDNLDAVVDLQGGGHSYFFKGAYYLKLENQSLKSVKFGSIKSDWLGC
Chain of Voltage-gated inwardly rectifying potassium channel KCNH2 (Q12809 whole entry): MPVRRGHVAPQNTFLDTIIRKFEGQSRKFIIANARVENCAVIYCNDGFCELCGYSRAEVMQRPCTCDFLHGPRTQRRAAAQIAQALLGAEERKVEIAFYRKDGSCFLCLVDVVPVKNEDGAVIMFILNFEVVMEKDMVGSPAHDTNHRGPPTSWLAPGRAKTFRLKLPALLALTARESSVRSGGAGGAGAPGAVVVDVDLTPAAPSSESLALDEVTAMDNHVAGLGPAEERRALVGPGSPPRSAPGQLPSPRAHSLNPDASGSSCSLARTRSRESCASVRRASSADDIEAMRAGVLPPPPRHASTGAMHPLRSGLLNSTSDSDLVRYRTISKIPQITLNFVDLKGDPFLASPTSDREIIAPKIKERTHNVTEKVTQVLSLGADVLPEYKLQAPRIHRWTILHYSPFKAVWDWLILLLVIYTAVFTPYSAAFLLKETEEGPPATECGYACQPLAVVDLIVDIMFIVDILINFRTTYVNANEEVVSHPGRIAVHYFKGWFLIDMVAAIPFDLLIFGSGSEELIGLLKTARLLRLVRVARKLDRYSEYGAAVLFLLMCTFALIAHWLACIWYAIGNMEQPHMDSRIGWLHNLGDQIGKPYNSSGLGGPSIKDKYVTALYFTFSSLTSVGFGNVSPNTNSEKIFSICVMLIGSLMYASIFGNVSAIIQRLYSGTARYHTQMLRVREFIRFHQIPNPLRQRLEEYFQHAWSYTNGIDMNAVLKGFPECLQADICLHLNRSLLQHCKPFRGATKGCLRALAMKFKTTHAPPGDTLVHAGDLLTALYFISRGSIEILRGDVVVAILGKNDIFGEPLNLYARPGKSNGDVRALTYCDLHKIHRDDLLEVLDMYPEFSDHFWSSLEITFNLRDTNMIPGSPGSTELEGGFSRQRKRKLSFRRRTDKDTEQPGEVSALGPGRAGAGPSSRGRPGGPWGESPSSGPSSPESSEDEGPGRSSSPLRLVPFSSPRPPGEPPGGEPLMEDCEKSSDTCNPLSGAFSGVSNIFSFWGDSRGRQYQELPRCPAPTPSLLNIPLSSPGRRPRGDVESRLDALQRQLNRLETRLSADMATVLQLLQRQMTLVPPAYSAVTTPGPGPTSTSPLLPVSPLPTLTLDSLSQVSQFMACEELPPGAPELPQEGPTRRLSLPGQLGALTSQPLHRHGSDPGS
Chain of Cytochrome P450 3A4 (P08684 whole entry): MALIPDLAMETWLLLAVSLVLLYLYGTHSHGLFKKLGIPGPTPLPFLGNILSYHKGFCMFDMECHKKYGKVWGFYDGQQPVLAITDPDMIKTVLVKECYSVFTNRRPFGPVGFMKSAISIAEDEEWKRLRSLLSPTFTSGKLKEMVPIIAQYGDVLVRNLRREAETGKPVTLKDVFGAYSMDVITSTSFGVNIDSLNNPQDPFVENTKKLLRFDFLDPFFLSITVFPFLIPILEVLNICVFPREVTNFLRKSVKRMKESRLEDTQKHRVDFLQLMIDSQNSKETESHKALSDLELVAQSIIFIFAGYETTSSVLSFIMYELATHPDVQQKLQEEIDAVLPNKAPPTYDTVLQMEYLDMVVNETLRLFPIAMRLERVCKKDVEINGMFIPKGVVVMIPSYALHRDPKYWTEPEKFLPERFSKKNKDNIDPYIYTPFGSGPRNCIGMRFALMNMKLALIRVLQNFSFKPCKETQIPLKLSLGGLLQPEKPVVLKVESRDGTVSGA

Compound	IC50 [1] [µM]	IC50 (Collagenase 3) [µM]	IC50 [2] [µM]	IC50 [3] [µM]	IC50 (Cytochrome P450 3A4) [µM]	IC50 (Interstitial collagenase) [µM]	hepatocyte CLint [4] [µL/min/1e6 cells]	clearance [5] [L/h/kg]	microsomal CLint [6] [µL/min/mg]	half-life [7] [h]	bioavailability [8] [%]	IC50 [9] [µM]	IC50 [10] [µM]
C[C@@H](C[C@@H](CS(=O)(=O)N1CCN(c2ccc(F)cc2)CC1)N(O)C=O)c1ncc(F)cn1	26	0.011	0.0014	0.011	1.4	> 1.1							
C[C@@H](C[C@@H](CS(=O)(=O)N1CCC(OCc2ccc(Cl)cc2Cl)CC1)N(O)C=O)c1ncc(F)cn1		0.18	0.001	0.18		9.7							
C[C@@H](C[C@@](C)(CS(=O)(=O)N1CCN(c2ccc(F)cc2)CC1)N(O)C=O)c1ncc(F)cn1	21	0.0076	0.0073	0.0076	> 10	0.98							
C[C@@H](C[C@@](C)(CS(=O)(=O)N1CCN(CCc2ccc(Cl)cc2Cl)CC1)N(O)C=O)c1ncc(F)cn1			0.0038				10.2	0.84	54	5.6	30		
C[C@@H](C[C@@](C)(CS(=O)(=O)N1CCC(CCc2ccc(Cl)cc2Cl)CC1)N(O)C=O)c1ncc(F)cn1			0.0011				7.6	1.2	6.9	14.9	38		
C[C@@H](C[C@@](C)(CS(=O)(=O)N1CCC(NCc2ccc(Cl)cc2Cl)CC1)N(O)C=O)c1ncc(F)cn1			2.2										
C[C@@H](C[C@@](C)(CS(=O)(=O)N1CCC(CCc2ccc(C(F)(F)F)cc2Cl)CC1)N(O)C=O)c1ncc(F)cn1		0.26	0.00048	0.9		> 100						0.17	
Cc1cc(Cl)ccc1CCC1CCN(S(=O)(=O)C[C@](C)(C[C@H](C)c2ncc(F)cn2)N(O)C=O)CC1		0.37	0.00036	0.36		> 8.5						0.53	
C[C@@H](C[C@@](C)(CS(=O)(=O)N1CCC(CCc2ccc(F)cc2Br)CC1)N(O)C=O)c1ncc(F)cn1		2.3	0.00048	0.39		> 8						1.7	
C[C@@H](C[C@@](C)(CS(=O)(=O)N1CCC(CCc2cc(F)ccc2Cl)CC1)N(O)C=O)c1ncc(F)cn1		0.57	0.0028	0.056		> 9.6						0.5	
C[C@@H](C[C@@](C)(CS(=O)(=O)N1CCC(CCc2ccc(F)cc2C(F)(F)F)CC1)N(O)C=O)c1ncc(F)cn1		16	0.00052	3.6		9.7						1.9	0.019
Cc1cc(F)ccc1CCC1CCN(S(=O)(=O)C[C@](C)(C[C@H](C)c2ncc(F)cn2)N(O)C=O)CC1		0.53	0.00018	0.16		> 8.1						0.12	0.021
Cc1cc(C(F)(F)F)ccc1CCC1CCN(S(=O)(=O)C[C@](C)(C[C@H](C)c2ncc(F)cn2)N(O)C=O)CC1		2.3	0.00049	4.6		> 10						0.35	0.42
C[C@@H](C[C@@](C)(CS(=O)(=O)N1CCC(CCc2ccc(C(F)(F)F)cc2C2CC2)CC1)N(O)C=O)c1ncc(F)cn1		17	0.00094	18		> 10						> 9.1	3.2
Cc1ccc(C)c(CCC2CCN(S(=O)(=O)C[C@](C)(C[C@H](C)c3ncc(F)cn3)N(O)C=O)CC2)c1		23	0.00048	4.2		> 10						4.2	0.022
Cc1cc(CCC2CCN(S(=O)(=O)C[C@](C)(C[C@H](C)c3ncc(F)cn3)N(O)C=O)CC2)c(C)cn1		14	0.00043	17		> 100						12	0.23
Cc1cnc(C)c(CCC2CCN(S(=O)(=O)C[C@](C)(C[C@H](C)c3ncc(F)cn3)N(O)C=O)CC2)c1		27	0.0019	> 8		55						35	1.4
Cc1nsc(C)c1CCC1CCN(S(=O)(=O)C[C@](C)(C[C@H](C)c2ncc(F)cn2)N(O)C=O)CC1		4.6	0.00026	2.6								2.4	
Cc1cc(C)c(CCC2CCN(S(=O)(=O)C[C@](C)(C[C@H](C)c3ncc(F)cn3)N(O)C=O)CC2)cn1		> 4.5	0.00068	> 3.7		> 100						2.2	3
C[C@@H](C[C@@](C)(CS(=O)(=O)N1CCC(CCc2ncc(C(F)(F)F)cc2Cl)CC1)N(O)C=O)c1ncc(F)cn1		> 16	0.0042	> 18		> 70						2.8	27
Cc1cc(C(F)(F)F)cnc1CCC1CCN(S(=O)(=O)C[C@](C)(C[C@H](C)c2ncc(F)cn2)N(O)C=O)CC1		6.1	0.0021	40		> 79						2.5	24
C[C@@H](C[C@@](C)(CS(=O)(=O)N1CCC(CCc2ccc(S(C)(=O)=O)cc2Cl)CC1)N(O)C=O)c1ncc(F)cn1		0.35	0.00057	> 3.6		> 70						0.18	5.5
Cc1cc(CCC2CCN(S(=O)(=O)C[C@](C)(C[C@H](C)c3ncc(F)cn3)N(O)C=O)CC2)n(C)n1		6.7	0.0054	29		> 10						26	2.8
